Measurements taken from article PMC8252455, “Prediction of a clinically effective dose of THY1773, a novel V 1B receptor antagonist, based on preclinical data” (Biopharmaceutics & Drug Disposition, 2021).
Marks after values point to notes of the source that are not given here.

Experiments:
major CYP isoforms = test: In vitro CYP inhibition or induction potential; assay type: in vitro ADME; conditions: data not shown
[1] = Plasma protein binding by equilibrium dialysis, human plasma; assay type: in vitro ADME; conditions: PBPK input, experimental data
Procedure: The plasma protein binding of THY1773 in rats, dogs, and humans was evaluated by an equilibrium dialysis method using a 96‐well equilibrium dialysis plate (HTDialysis) with a 12–14 kDa cut‐off dialysis membrane. THY1773 was dissolved in dimethyl sulfoxide, and spiked with rat, dog, or human plasma at a final concentration of 300 ng/ml. An aliquot of plasma containing THY1773 and sodium phosphate buffer (pH 7.4) was added into the donor side and the receiver side of each designated well, respectively. After incubation for 6 h at a rate of 50 oscillation/min at 37°C in an air incubator, an aliquot of each side of each well was collected and mixed with acetonitrile/methanol (9:1, vol/vol) containing the IS. Each sample was centrifuged at 3974 × g for 10 min at 4°C to remove the precipitated proteins, and the resultant supernatants were subjected to LC‐MS/MS analysis. The protein binding (%) was calculated using the Boudinot formula (Boudinot & Jusko, 1984).

CYP3A = test: Reaction phenotyping in HLMs with ketoconazole; assay type: in vitro ADME, human
Procedure: Reaction phenotyping using cDNA expressed recombinant human CYP isoforms, CYP1A2, CYP2B6, CYP2C8, CYP2C9, CYP2C19, CYP2D6, and CYP3A4, was conducted. Each recombinant enzyme (100 pmol/ml) in potassium phosphate buffer (pH 7.4; 100 mmol/L for CYP3A4, 50 mmol/L for the others) was preincubated with [^3H]THY1773 (10 μmol/L) at 37°C for 5 min. The reactions were initiated by the addition of NADPH‐generating system (1 mmol/L NADP^+, 5 mmol/L G‐6‐P, 1 unit/ml G‐6‐PDH, and 5 mmol/L MgCl2) and incubated for 0 or 60 min. The reactions were terminated by the addition of an equal volume of acetonitrile/methanol (9:1, vol/vol), followed by centrifugation at 1650 × g for 10 min at 4°C. An aliquot of the supernatant was subjected to an Agilent 1200 HPLC system (Agilent Technologies, Inc.) equipped with a radiochemical flow detector (Radiomatic 625TR; Perkin Elmer, Inc.), and formation of metabolites was evaluated. […] The CLint was calculated by the method as described previously under metabolic stability in animal liver microsomes, and the fraction metabolized (fm) was calculated by Equation (1): (1) fm=1−(CLint, with inh/CLint) where CLint is intrinsic clearance without specific inhibitor and CLint,with inh is intrinsic clearance in the presence of specific inhibitor.

[2] = biological target: anterior pituitary V1B receptor; test: Rat V1B RO study using a tritium labeled V1B receptor ligand; conditions: in vivo; estimated from RO study of Kamiya et al., 2020
[3] = PK and urinary excretion in dogs; assay type: in vivo, dog
Procedure: The PK and urinary excretion of THY1773 in rats (1 mg/kg) and dogs (0.5 mg/kg) under fasted conditions were evaluated following intravenous or oral administration of THY1773. THY1773 was dissolved in 10% (vol/vol) hydroxypropyl‐β‐cyclodextrin at pH 4 for intravenous administration, or suspended in 0.5% (wt/vol) methyl cellulose 400 for oral administration. After a single intravenous or oral administration of THY1773, blood samples were collected into tubes containing EDTA‐2K as an anticoagulant. The scheduled time points were predose (dog only), 5 (intravenous only), 15, 30 min, 1, 2, 4, 8, 12, and 24 h postdose. Plasma was separated by centrifugation. Urine samples were collected into bottles set on ice for 24 h after intravenous administration of THY1773. Plasma and urine samples were treated with 4 volumes of acetonitrile/methanol (9:1, vol/vol) containing the IS. After centrifugation (3639 × g, 4°C, 10 min) to remove precipitated proteins, the supernatant was subjected to LC‐MS/MS analysis. The distributions of THY1773 into brain and pituitary gland in rats were investigated after a single oral administration of THY1773 (1 mg/kg). Blood was collected from the tail vein into tubes containing EDTA‐2K at 1 h after a single oral administration of THY1773, and the plasma was separated by centrifugation (12000 × g, 4°C, 3 min). After blood collection, the brain and pituitary gland were excised followed by homogenization with approximately 4 volumes of distilled water. Plasma, brain, and pituitary samples were treated with 4 volumes of acetonitrile/methanol (9:1, vol/vol) containing the IS and centrifuged (3639 × g, 4°C, 10 min). Aliquots of the supernatant were subjected to LC‐MS/MS analysis.
The plasma concentration–time profiles of THY1773 were analyzed by a non‐compartmental analysis with PK analysis software Phoenix WinNonlin® (version 6.1; Certara), and the PK parameters were calculated. The fraction excreted in urine was calculated by dividing the amount of THY1773 excreted in urine by the administered dose.

[4] = male dogs, iv 0.5 mg/kg, mean (%CV), n=3
[5] = male dogs, po 0.5 mg/kg, mean (%CV), n=3

CC(C)NC(=O)Cn1c(-c2cccc(Cl)c2)nn(-c2ccc(CCN3CCOCC3)cc2)c1=O [THY1773]
In vitro inhibition or induction potential on major CYP isoforms (major CYP isoforms): did not have any apparent in vitro inhibition or induction potential | Fraction unbound in plasma [1]: 0.017 | fm (fraction metabolized) (CYP3A; by CYP3A, ketoconazole 1 μmol/L): 0.914 | CLint (CYP3A; with ketoconazole 1 μmol/L, mean of duplicate): 0.961 ^a μl/min/mg | EC50 [2]: 4.8 nM | CLrenal compared with fu × GFR ([3]; dogs): comparable to fu × GFR | CLtotal as share of hepatic blood flow ([3]; dogs, single intravenous administration): approximately 30 % of hepatic blood flow | Urinary excretion of unchanged drug ([3]; dogs, within 24 h post intravenous dosing): 2.0% | AUC0‐∞ [3, 4]: 664 (23.7) h·ng/ml | CLtotal [3, 4]: 785 (26.4) ml/h/kg | Vdss [3, 4]: 2020 (37.6) ml/kg | t1/2 [3, 4]: 3.07 (59.3) h | AUC0‐∞ [3, 5]: 307 (37.7) h·ng/ml | Cmax [3, 5]: 105 (12.3) ng/ml | F (oral bioavailability) [3, 5]: 45.0 (16.6) % | t1/2 [3, 5]: 2.40 (81.2) h | tmax [3, 5]: 0.500 (0.0) h
